Test results: publication PMC11360041 (ACS Omega, 2024)
Entries after “also recorded” stand apart in the source; their conditions may differ.

Columns and labels:
TMV [1] = test: Protective effect of compounds against TMV in vivo; set-up: species or system tobacco mosaic virus; conditions: for inhibition at 100 µg/mL / inhibition at 500 µg/mL: Tobacco mosaic virus, read-out: relative inhibition rate (%) protective effect
TMV [2] = test: Curative effect of compounds against TMV in vivo; conditions: Tobacco mosaic virus, read-out: relative inhibition rate (%) curative effect
TMV particles = test: Morphological observation of TMV particles via transmission electron microscopy; set-up: species or system tobacco mosaic virus; conditions: 500 mg/L
[3] = target: T1, TMV coat protein (TMV-CP) (Tobacco mosaic virus, UniProt P69687); test: Microscale thermophoresis binding to TMV-CP
T1 sequence (P69687 2-159 limits assumed): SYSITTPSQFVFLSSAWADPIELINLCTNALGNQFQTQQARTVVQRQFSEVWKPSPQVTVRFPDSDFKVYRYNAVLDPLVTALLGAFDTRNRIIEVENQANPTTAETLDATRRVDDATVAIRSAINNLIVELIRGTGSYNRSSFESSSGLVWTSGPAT

TMV [4] = test: Inactivation effect of compounds against TMV in vivo; set-up: species or system tobacco mosaic virus; conditions: for inhibition at 100 µg/mL / inhibition at 500 µg/mL: Tobacco mosaic virus, read-out: relative inhibition rate (%) inactive effect
watermelon anthracnose = test: organism not typed; type: cell-based; conditions: read-out: Inhibition rate, Wa
Bipolaris maydis = type: cell-based; conditions: read-out: Inhibition rate, Bm
Fusarium graminearum = test: microbe, parasite or virus in culture; type: cell-based; conditions: read-out: Inhibition rate, Fg
Sclerotinia sclerotiorum = type: cell-based; conditions: read-out: Inhibition rate, Ss
[5] = test system: Fusarium oxysporium f. sp. cucumeris; type: cell-based; conditions: read-out: Inhibition rate, Fc
Phytophthora capsici = type: cell-based; conditions: read-out: Inhibition rate, Pc
Rhizoctonia solani = type: cell-based; conditions: read-out: Inhibition rate, Rs
Physalospora piricola = type: cell-based; conditions: read-out: Inhibition rate, Pp, 50 mg/L, Physalospora piricola
Alternaria solani = type: cell-based; conditions: read-out: Inhibition rate, As
[6] = test system: 14 kinds of phytopathogenic fungi; test: Fungicidal activity against 14 kinds of phytopathogenic fungi; type: cell-based; conditions: read-out: inhibitory rate against three fungi
Botrytis cinerea = type: cell-based; conditions: read-out: Inhibition rate, Bc
TMV [7] = conditions: 500 mg/L; cited from earlier work
TMV [8] = conditions: 500 mg/L; cited from earlier work; remark: listed apart in the source
TMV [9] = conditions: 500 mg/L; cited from earlier work; remark: listed apart in the source
TMV [10] = conditions: cited from earlier work

**Q.** Which results are given for `NC(=O)c1ncn([C@@H]2O[C@H](CO)[C@@H](O)[C@H]2O)n1` [Ribavirin, reference compound]?
**A.** inhibition at 100 µg/mL (TMV [1]): 13.4 ± 0.7%; inhibition at 500 µg/mL (TMV [1]): 40.8 ± 1%; inhibition at 100 µg/mL (TMV [2]): 10.1 ± 1.6%; inhibition at 500 µg/mL (TMV [2]): 38 ± 2.2%; effect on the morphology of TMV particles (TEM) (TMV particles): fragmented into shorter rods; Kd [3]: 512 ± 257 nM; inhibition at 100 µg/mL (TMV [4]): 12.1 ± 1.4%; inhibition at 500 µg/mL (TMV [4]): 39.2 ± 3.5%

**Q.** What does the source list for `COc1cccc(C=NNC(=O)Cn2ccc(=O)c3ccccc32)c1` [Compound 4]?
**A.** inhibition at 50 µg/mL (watermelon anthracnose): 39.5 ± 1.1%; inhibition at 50 µg/mL (Bipolaris maydis): 33.3 ± 1.4%; inhibition at 50 µg/mL (Fusarium graminearum): 38.1 ± 1.9%; inhibition at 50 µg/mL (Sclerotinia sclerotiorum): 36.6 ± 1.5%; inhibition at 100 µg/mL (TMV [1]): 15.8 ± 2.5%; inhibition at 500 µg/mL (TMV [1]): 46.3 ± 1.8%; inhibition at 50 µg/mL [5]: 36.7 ± 1.4%; inhibition at 50 µg/mL (Phytophthora capsici): 38.1 ± 1.7%; inhibition at 50 µg/mL (Rhizoctonia solani): 57.1 ± 2.3%; inhibition at 50 µg/mL (Physalospora piricola): 38.2 ± 1.7%; inhibition at 100 µg/mL (TMV [2]): 14 ± 0.5%; inhibition at 500 µg/mL (TMV [2]): 47.6 ± 2.5%; effect on the morphology of TMV particles (TEM) (TMV particles): hindered the self-assembly and growth of TMV; also recorded: fragmented into shorter rods; Kd [3]: 142 ± 60 nM; inhibition at 50 µg/mL (Alternaria solani): 61.5 ± 3.2%; inhibition at 50 µg/mL [6]: > 40%; inhibition at 50 µg/mL (Botrytis cinerea): 14.6 ± 0.7%; inhibition at 100 µg/mL (TMV [4]): 16.8 ± 0.3%; inhibition at 500 µg/mL (TMV [4]): 51.2 ± 1.9%

**Q.** Which results are given for `O=C(Cn1ccc(=O)c2ccccc21)NN=Cc1cc2ccccc2[nH]1` [Compound 23]?
**A.** inhibition at 50 µg/mL (watermelon anthracnose): 11.6 ± 0.9%; inhibition at 50 µg/mL (Bipolaris maydis): 8.9 ± 1.1%; inhibition at 50 µg/mL (Fusarium graminearum): 14.3 ± 1.1%; inhibition at 50 µg/mL (Sclerotinia sclerotiorum): 12.2 ± 0.9%; relative inhibition rate (%) protective effect (TMV [1]; 100 mg/L, in vivo, against TMV): did not exhibit any; inhibition at 100 µg/mL (TMV [1]): 0%; inhibition at 500 µg/mL (TMV [1]): 43.9 ± 1%; inhibition at 50 µg/mL [5]: 6.1 ± 1.3%; inhibition at 50 µg/mL (Phytophthora capsici): 31 ± 2.1%; inhibition at 50 µg/mL (Rhizoctonia solani): 3.6 ± 0.5%; inhibition at 50 µg/mL (Physalospora piricola): 51.5 ± 2.3%; inhibition at 100 µg/mL (TMV [2]): 6.6 ± 1.9%; inhibition at 500 µg/mL (TMV [2]): 32.5 ± 4.1%; inhibition at 50 µg/mL (Alternaria solani): 15.4 ± 1.5%; inhibition at 50 µg/mL (Botrytis cinerea): 10.4 ± 1.2%; relative inhibition rate (%) inactive effect (TMV [4]; 100 mg/L, in vivo, against TMV): did not exhibit any; inhibition at 100 µg/mL (TMV [4]): 0%; inhibition at 500 µg/mL (TMV [4]): 40.1 ± 2.7%

**Q.** Which results are given for `O=C(Cn1ccc(=O)c2ccccc21)NN=Cc1ccc(C(F)(F)F)cc1` [Compound 17]?
**A.** inhibition at 50 µg/mL (watermelon anthracnose): 11.6 ± 1.2%; inhibition at 50 µg/mL (Bipolaris maydis): 8.9 ± 0.9%; inhibition at 50 µg/mL (Fusarium graminearum): 19 ± 1.2%; inhibition at 50 µg/mL (Sclerotinia sclerotiorum): 22 ± 1.3%; inhibition at 100 µg/mL (TMV [1]): 19 ± 1.8%; inhibition at 500 µg/mL (TMV [1]): 44.1 ± 1.4%; inhibition at 50 µg/mL [5]: 26.5 ± 1.7%; inhibition at 50 µg/mL (Phytophthora capsici): 9.5 ± 0.8%; inhibition at 50 µg/mL (Rhizoctonia solani): 3.6 ± 0.7%; inhibition at 50 µg/mL (Physalospora piricola): 47.1 ± 1.4%; inhibition at 100 µg/mL (TMV [2]): 17.7 ± 1.5%; inhibition at 500 µg/mL (TMV [2]): 49.2 ± 3%; inhibition at 50 µg/mL (Alternaria solani): 15.4 ± 1.3%; inhibition at 50 µg/mL (Botrytis cinerea): 18.8 ± 1.5%; inhibition at 100 µg/mL (TMV [4]): 7.5 ± 0.2%; inhibition at 500 µg/mL (TMV [4]): 47.1 ± 1.9%

**Q.** Which inhibition at 50 µg/mL (watermelon anthracnose) does the source give for `O=C(Cn1ccc(=O)c2ccccc21)NN=Cc1ccc(-c2ccccc2)cc1` [Compound 11] here?
**A.** 14 ± 1.7%

**Q.** And the inhibition at 50 µg/mL (Bipolaris maydis)?
**A.** 11.1 ± 0.9%

**Q.** What about the inhibition at 50 µg/mL (Fusarium graminearum) of the same molecule?
**A.** 9.5 ± 0.7%

**Q.** And the inhibition at 50 µg/mL (Sclerotinia sclerotiorum)?
**A.** 22 ± 1.4%

**Q.** And the inhibition at 100 µg/mL (TMV [1])?
**A.** 20.9 ± 0.4%

**Q.** And the inhibition at 500 µg/mL (TMV [1])?
**A.** 45.2 ± 1.1%

**Q.** And the inhibition at 50 µg/mL [5]?
**A.** 22.4 ± 1.3%

**Q.** And the inhibition at 50 µg/mL (Phytophthora capsici)?
**A.** 26.2 ± 1.5%

**Q.** What about the inhibition at 50 µg/mL (Rhizoctonia solani) of the same molecule?
**A.** 35.7 ± 2.2%

**Q.** What about the inhibition at 50 µg/mL (Physalospora piricola) of the same molecule?
**A.** 17.6 ± 1.6%

**Q.** What about the inhibition at 100 µg/mL (TMV [2]) of the same molecule?
**A.** 10.1 ± 2%

**Q.** What about the inhibition at 500 µg/mL (TMV [2]) of the same molecule?
**A.** 43 ± 2.7%

**Q.** And the inhibition at 50 µg/mL (Alternaria solani)?
**A.** 38.5 ± 2.4%

**Q.** And the inhibition at 50 µg/mL (Botrytis cinerea)?
**A.** 25 ± 1.8%

**Q.** What about the inhibition at 100 µg/mL (TMV [4]) of the same molecule?
**A.** 19.8 ± 2.8%

**Q.** And the inhibition at 500 µg/mL (TMV [4])?
**A.** 49.6 ± 3.9%

**Q.** For `Cn1ccc(=O)c2ccccc21` [echinopsine], which “curative activity against TMV” value (TMV [7]) is on record?
**A.** 46.1%

**Q.** What about the “protective activity against TMV” value (TMV [8]) of the same molecule?
**A.** 42.6%

**Q.** What about the “inactive activity against TMV” value (TMV [9]) of the same molecule?
**A.** 49.5%

**Q.** For `CNCC(=O)N[C@@H](CO)C(=O)N[C@H]1[C@H](O)[C@@H](O)[C@H](n2ccc(N)nc2=O)O[C@@H]1C(N)=O` [Ningnanmycin], which “actual inhibitory effect in the field” value (TMV [10]) is on record?
**A.** lower than 60%
